Test results: article PMC11098465, “A comparative analysis of peptide-delivered antisense antibiotics using diverse nucleotide mimics” (RNA, 2024)

Tested on: Salmonella periplasm
Experiment: MALDI-TOF-based analysis of ASO-peptide conjugate uptake
Type: cell-based
Design: key to Uptake inside bacteria (MS): +++: Effect strength is represented by additional (+) signs.; ++: Effect strength is represented by additional (+) signs.; Effect strength is represented by additional (+) signs
Details: 15 min; for Detection in the periplasmic fraction (in words): 10 µM KFF-ASO conjugates, MALDI MS; for Uptake inside bacteria (MS): ASO conjugated to the carrier peptide, 10 µM, MALDI-TOF of periplasm, summary grade
Description: Finally, to directly test if the ASO conjugates translocate into Salmonella, we used MALDI mass-spectrometry (MS) to identify ASO fragments in the bacterial periplasm after treatment with 10 µM KFF-ASO conjugates for 15 min (Table 2; Supplemental Figs. S7 and S8). […] This is in line with a study that reported that the KFF peptide is cleaved within the periplasm before translocation into the cytoplasm ([Yavari et al. 2021]). […] Importantly, none of the negASOs were detected in this subcellular fraction (Supplemental Fig. S8), likely explaining the lack of antibacterial effects against Salmonella.
The experiments were performed by modifying previously published protocols ([Yavari et al. 2021]). From an overnight culture of Salmonella, a second culture was inoculated (1:100) and grown to OD600 of 0.5 (corresponding to ∼2 × 10^8 cfu/mL). These bacterial cells were washed twice in MHB and resuspended in 95 µL of MHB with an additional incubation at 37°C for 5–10 min. Sterile ASO-peptide conjugates were prepared at concentrations of 200 µM. Five microliters of the 200 µM working solutions were added to 95 µL of bacteria in culture media, leading to a final concentration of the compounds of 10 µM. Five microliters of H2O was added as a negative control. The tubes were incubated at 37°C for 15 min with shaking at 300 rpm. Subsequently, they were centrifuged at 8000g for 5 min at 4°C. The supernatant was aspirated, and the pellet was washed with 0.01 M Tris-HCl before being resuspended in 200 µL of 0.01M Tris-HCl containing 0.5 M Sucrose, 150 µg/mL lysozyme, 10 mM EDTA and incubated at 37°C overnight. These tubes were then centrifuged at 2000g at 4°C for 10 min. The supernatant obtained represents the periplasm. The periplasm fragment was then mixed with 2,6-Dihydroxyacetophenone (DHAP) in ACN 1:1, spotted on a MALDI plate, and analyzed for MALDI-TOF-MS in a Bruker DaltonicsUltrafleXtreme Instrument. The experiment was performed two times, and data of one representative experiment are shown.

Substance | Detection in the periplasmic fraction (in words) | Uptake inside bacteria (MS) | Fragments detected (periplasm, 10 µM KFF-ASO conjugate, MALDI-TOF-MS)
PMO: phosphorodiamidate morpholino 10mer ASO, sequence CTCATACTCT, targeting acpP −5 to +5 (all phosphorodiamidate morpholino (PMO)) | detected in the periplasmic fraction | + | only the PMO fragment was observed in the periplasm
PNA: peptide nucleic acid 10mer ASO, sequence CTCATACTCT, targeting acpP −5 to +5 (all peptide nucleic acid (PNA)) | detected in the periplasmic fraction | + | –
